The target of assay [1] is T1, Tyrosine-protein phosphatase non-receptor type 1 (Homo sapiens, UniProt P18031).
T1 sequence (P18031 whole entry): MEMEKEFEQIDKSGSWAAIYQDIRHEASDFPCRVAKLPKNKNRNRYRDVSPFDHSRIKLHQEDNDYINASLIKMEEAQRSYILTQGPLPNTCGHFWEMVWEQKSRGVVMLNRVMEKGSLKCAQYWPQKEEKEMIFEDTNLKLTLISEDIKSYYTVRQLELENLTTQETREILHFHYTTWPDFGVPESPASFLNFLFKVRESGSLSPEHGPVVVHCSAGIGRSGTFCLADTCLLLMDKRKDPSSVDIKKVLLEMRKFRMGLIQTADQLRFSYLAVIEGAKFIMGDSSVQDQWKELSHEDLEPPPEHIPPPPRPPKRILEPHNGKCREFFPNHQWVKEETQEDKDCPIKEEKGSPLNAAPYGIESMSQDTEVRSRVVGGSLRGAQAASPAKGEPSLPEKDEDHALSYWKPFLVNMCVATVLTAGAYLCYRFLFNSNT
The assay is described as follows: Inhibition of recombinant human PTP1B using p-NPP as substrate incubated for 30 mins by absorbance based microplate reader.

Assay [2] deals with T1, Tyrosine-protein phosphatase non-receptor type 1. In words: Competitive inhibition of recombinant human PTP1B using p-NPP as substrate assessed as inhibition constant incubated for 30 mins by Lineweaver-Burk plot analysis.

Among the data in ChEMBL document CHEMBL6127021, “Inhibition of protein tyrosine phosphatase 1B by serratane triterpenes from Huperzia serrata and their molecular docking study” (Bioorg Med Chem Lett, 2024) are IC50 and Ki values, retold here.

Structures are written as SMILES. pIC50, pKi: −log10 of the molar value. A value given as a limit tells only on which side of the number the result lay.

As for `CC1(C)[C@@H](O)CC[C@@]2(C)[C@H]1CC[C@@]1(C)CC3=CC[C@H]4C(C)(C)[C@@H](O)CC[C@]4(C)[C@H]3CC[C@@H]12`, the pIC50 – broadly, −log10 of the IC50, conventionally taken in molar units – in assay [1] is 5.14. In assay [2], the negative logarithm of the Ki (pKi) (commonly the Ki on a negative log10 scale, so that one unit is a factor of ten) was 4.91.
Turning to `CC(=O)O[C@H]1CC[C@@]2(C)[C@@H](CC[C@]3(O)C[C@]4(C)CC[C@H]5C(C)(C)[C@@H](O)CC[C@]5(C)[C@H]4CC[C@@H]32)C1(C)C`, the negative logarithm of the IC50 (pIC50) in assay [1] is less than 4.52.
Consider `CC(=O)O[C@H]1CC[C@@]2(C)[C@@H](CC[C@@]3(C)CC4=CC[C@H]5C(C)(C)[C@@H](O)CC[C@]5(C)[C@H]4CC[C@@H]32)C1(C)C`, for which, in assay [1], the pIC50 was less than 4.52.
Consider `CC1(C)[C@@H](O)CC[C@@]2(C)[C@H]1CC[C@@]1(C)CC3=CC[C@H]4C(C)(C)[C@H](O)CC[C@]4(C)[C@H]3CC[C@@H]12`, for which the negative-log IC50 (pIC50) in assay [1] was 5.33. The negative logarithm of the Ki (pKi) in assay [2] was 4.92.
